Results taken from patent US20260306639A1, “DEGRADER FOR DECOMPOSING CMET PROTEIN, AND PHARMACEUTICAL COMPOSITION COMPRISING SAME” (INNOCURE THERAPEUTICS, INC., priority 2022, published 2026).

System: c-MET
Assay: c-MET protein degradation (Simple Western), MKN-45 cells
Assay type: cell-based, human
Conditions: MKN-45 gastric cancer cells, c-MET overexpressing; 24 hours
Protocol: In order to assess the resolution of the compound of the present invention for c-MET expressed in cells, cells were dispensed in a 12-well plate at a concentration of 2×10^5 cells/well, and then gastric cancer cell lines were treated with samples for 24 hours and lung cancer cell lines were treated for 48 hours. Cell lysates were collected using a scraper on ice, centrifuged at 4° C. 15,000 rpm for 30 min to obtain a protein-containing supernatant. Protein expression was then measured using the Simple Western Automated Western Blot System Abby instrument using 3 μg of protein for each sample. SDS and heat-induced denaturation proteins were separated by molecular weight, attached to capillary, reacted with anti-c-MET or anti-GAPDH antibodies, which are primary antibodies, and then reacted with HRP-conjugated secondary antibodies, and analyzed the protein expression signal with compass software. Protein expression was normalized based on the expression value of GAPDH, and protein development in each sample was measured as a percentage (%) based on 100% of samples treated with 0.1% DMSO carriers, and DC50 (concentration of a compound where 50% protein inhibition is achieved) was calculated from the change in protein expression amount due to compound treatment.

Structure (SMILES)	DC50 [nM]
Cc1nn(C2CCC(=O)NC2=O)c(=O)c2ccc(NCCOCCOCCOCCOCCC(=O)N3CCC(COc4cnc(-c5cccc(Cn6nc(-c7cccc(C#N)c7)ccc6=O)c5)nc4)CC3)cc12 (stereo not shown) [ICT-0001091]	< 100
Cn1cc(-c2cnc3c(nnn3C[C@@H]3CN(c4ncc(-c5ccc(CN6CCN(C(=O)CN7CCN(c8ccc9c(=O)n(C%10CCC(=O)NC%10=O)ncc9c8)CC7)CC6)cc5)cn4)CCO3)n2)cn1 (stereo partly shown) [ICT-0001109]	< 100
Cc1nn(C2CCC(=O)NC2=O)c(=O)c2cc(N3CCN(C(=O)CN4CCC(COc5cnc(-c6cccc(Cn7nc(-c8cccc(C#N)c8)ccc7=O)c6)nc5)CC4)CC3)ccc12 (stereo not shown) [ICT-0001115, 3-(1-(3-(5-((1-(2-(4-(3-(2,6-dioxopiperidin-3-yl)-1-methyl-4-oxo-3,4-dihydropetalazine-6-yl)piperazine-1-yl)2-oxoethyl)piperidine-4-il)methoxy)pyrimidine-2-yl)benzyl)6-oxo-1,6-dihydropyridazine-3-yl)benzonitrile]	< 100
Cc1nn(C2CCC(=O)NC2=O)c(=O)c2ccc(N3CCN(CCC(=O)N4CCC(COc5cnc(-c6cccc(Cn7nc(-c8cccc(C#N)c8)ccc7=O)c6)nc5)CC4)CC3)cc12 (stereo not shown) [ICT-0001174]	< 100
Cc1nn(C2CCC(=O)NC2=O)c(=O)c2ccc(N3CCN(CCCC(=O)N4CCC(COc5cnc(-c6cccc(Cn7nc(-c8cccc(C#N)c8)ccc7=O)c6)nc5)CC4)CC3)cc12 (stereo not shown) [ICT-0001175, 3-(1-(3-(5-((1-(4-(4-(2-(2,6-dioxopiperidine-3-yl)-4-methyl-1-oxo-1,2-dihydropthalazine-6-yl)piperazine-1-yl)butanoyl)piperidine-4-il)methoxy)pyrimidine-2-yl)benzyl)6-oxo-1,6-dihydropyridazine-3-yl)benzonitrile]	< 100
Cc1nn(C2CCC(=O)NC2=O)c(=O)c2ccc(N3CCN(CCCCC(=O)N4CCC(COc5cnc(-c6cccc(Cn7nc(-c8cccc(C#N)c8)ccc7=O)c6)nc5)CC4)CC3)cc12 (stereo not shown) [ICT-0001176]	< 100
Cc1nn(C2CCC(=O)NC2=O)c(=O)c2ccc(N3CCN(C(=O)CN4CCC(COc5cnc(-c6cccc(Cn7nc(-c8cccc(C#N)c8)ccc7=O)c6)nc5)CC4)CC3)cc12 (stereo not shown) [ICT-0001177, 3-(1-{[3-(5-{[1-(2-{4-[2-(2,6-dioxopiperidin-3-yl)-4-methyl-1-oxo-1,2-dihydropthalazine-6-yl]piperazine-1-yl}-2-oxoethyl)piperidine-4-yl]methoxy}pyrimidine-2-yl)phenyl]methyl}-6-oxo-1,6-dihydropyridazine-3-yl)benzonitrile]	< 100
Cc1nn(C2CCC(=O)NC2=O)c(=O)c2cc(N3CCN(CC4CCN(C(=O)CN5CCC(COc6cnc(-c7cccc(Cn8nc(-c9cccc(C#N)c9)ccc8=O)c7)nc6)CC5)CC4)CC3)ccc12 (stereo not shown) [ICT-0001195]	< 100
N#Cc1cccc(-c2ccc(=O)n(Cc3cccc(-c4ncc(OCC5CCN(C(=O)CCN6CCN(c7ccc8c(=O)n(C9CCC(=O)NC9=O)ncc8c7)CC6)CC5)cn4)c3)n2)c1 (stereo not shown) [ICT-0001199, 3-(1-{[3-(5-{[1-(3-{4-[2-(2,6-dioxopiperidin-3-yl)-1-oxo-1,2-dihydropthalazine-6-yl]piperazine-1-yl}propanoyl)piperidine-4-il]methoxy}pyrimidin-2-yl)phenyl]methyl}-6-oxo-1,6-dihydropyridazine-3-yl)benzonitrile]	< 100
N#Cc1cccc(-c2ccc(=O)n(Cc3cccc(-c4ncc(OCC5CCN(C(=O)CCCN6CCN(c7ccc8c(=O)n(C9CCC(=O)NC9=O)ncc8c7)CC6)CC5)cn4)c3)n2)c1 (stereo not shown) [ICT-0001200, 3-(1-{[3-(5-{[1-(4-{4-[2-(2,6-dioxopiperidine-3-yl)-1-oxo-1,2-dihydropthalazine-6-yl]piperazine-1-day}butanoyl)piperidine-4-il]methoxy}pyrimidine-2-yl)phenyl]methyl}6-oxo-1,6-dihydropyridazine-3-yl)benzonitrile]	< 100
N#Cc1cccc(-c2ccc(=O)n(Cc3cccc(-c4ncc(OCC5CCN(C(=O)CCCCN6CCN(c7ccc8c(=O)n(C9CCC(=O)NC9=O)ncc8c7)CC6)CC5)cn4)c3)n2)c1 (stereo not shown) [ICT-0001201, 3-(1-{[3-(5-{[1-(5-{4-[2-(2,6-dioxopiperidin-3-yl)-1-oxo-1,2-dihydropetalazine-6-yl]piperazine-1-yl}pentanoyl)piperidine-4-il]methoxy}pyrimidine-2-yl)phenyl]methyl}6-oxo-1,6-dihydropyridazine-3-yl)benzonitrile]	< 100
Cc1nn(C2CCC(=O)NC2=O)c(=O)c2cc(F)c(N3CCN(CC4CCN(C(=O)CN5CCC(COc6cnc(-c7cccc(Cn8nc(-c9cccc(C#N)c9)ccc8=O)c7)nc6)CC5)CC4)CC3)cc12 (stereo not shown) [ICT-0001204]	< 100
N#Cc1cccc(-c2ccc(=O)n(Cc3cccc(-c4ncc(OCC5CCN(CC(=O)NCCCC#Cc6ccc7c(=O)n(C8CCC(=O)NC8=O)ncc7c6)CC5)cn4)c3)n2)c1 (stereo not shown) [ICT-0001205]	< 100
N#Cc1cccc(-c2ccc(=O)n(Cc3cccc(-c4ncc(OCC5CCN(CC(=O)NCCCCCc6ccc7c(=O)n(C8CCC(=O)NC8=O)ncc7c6)CC5)cn4)c3)n2)c1 (stereo not shown) [ICT-0001206]	< 100
Cc1nn(C2CCC(=O)NC2=O)c(=O)c2ccc(N3CCC(CN4CCN(CC(=O)N5CCC(COc6cnc(-c7cccc(Cn8nc(-c9cccc(C#N)c9)ccc8=O)c7)nc6)CC5)CC4)CC3)cc12 (stereo not shown) [ICT-0001213]	< 100
Cc1nn(C2CCC(=O)NC2=O)c(=O)c2cc(N3CCN(CCCCC(=O)N4CCC(COc5cnc(-c6cccc(Cn7nc(-c8cccc(C#N)c8)ccc7=O)c6)nc5)CC4)CC3)ccc12 (stereo not shown) [ICT-0001217]	< 100
N#Cc1cccc(-c2ccc(=O)n(Cc3cccc(-c4ncc(OCC5CCN(CC(=O)N6CCN(c7ccc8c(=O)n(C9CCC(=O)NC9=O)ncc8c7)CC6)CC5)cn4)c3)n2)c1 (stereo not shown) [ICT-0001221]	< 100
N#Cc1cccc(-c2ccc(=O)n(Cc3cccc(-c4ncc(OCC5CCN(CCC(=O)N6CCN(c7ccc8c(=O)n(C9CCC(=O)NC9=O)ncc8c7)CC6)CC5)cn4)c3)n2)c1 (stereo not shown) [ICT-0001223]	< 100
Cc1nn(C2CCC(=O)NC2=O)c(=O)c2ccc(N3CCN(C(=O)CCN4CCC(COc5cnc(-c6cccc(Cn7nc(-c8cccc(C#N)c8)ccc7=O)c6)nc5)CC4)CC3)cc12 (stereo not shown) [ICT-0001224]	< 100
Cc1nn(C2CCC(=O)NC2=O)c(=O)c2cc(N3CCN(C(=O)CCN4CCC(COc5cnc(-c6cccc(Cn7nc(-c8cccc(C#N)c8)ccc7=O)c6)nc5)CC4)CC3)ccc12 (stereo not shown) [ICT-0001225]	< 100
N#Cc1cccc(-c2ccc(=O)n(Cc3cccc(-c4ncc(OCC5CCN(CCCC(=O)N6CCN(c7ccc8c(=O)n(C9CCC(=O)NC9=O)ncc8c7)CC6)CC5)cn4)c3)n2)c1 (stereo not shown) [ICT-0001226, 3-(1-(3-(5-((1-(4-(4-(2-(2,6-dioxopiperidine-3-yl)-1-oxo-1,2-dihydropetalazine-6-yl)piperazine-1-il)-4-oxobutyl)piperidine-4-il)methoxy)pyrimidine-2-yl)benzyl)-6-oxo-1,6-dihydropyridazine-3-yl)benzonitrile]	100 to 1000
Cc1nn(C2CCC(=O)NC2=O)c(=O)c2ccc(N3CCN(C(=O)CCCN4CCC(COc5cnc(-c6cccc(Cn7nc(-c8cccc(C#N)c8)ccc7=O)c6)nc5)CC4)CC3)cc12 (stereo not shown) [ICT-0001227, 3-(1-(3-(5-((1-(4-(4-(2-(2,6-dioxopiperidin-3-yl)-4-methyl-1-oxo-1,2-dihydropetalazine-6-yl)piperazine-1-yl)4-oxobutyl)piperidine-4-yl)methoxy)pyrimidine-2-yl)benzyl)6-oxo-1,6-dihydropyridazine-3-yl)benzonitrile]	100 to 1000
